# Assay results as given in patent US9199947B2, “Biaryl-propionic acid derivatives and their use as pharmaceuticals” (SANOFI, priority 2013, dated 2015).
# Biological target: Recombinant human cathepsin A (Homo sapiens (Human), UniProt P10619)
# Test: Cathepsin A inhibitory activity (Bodipy FL-labeled bradykinin substrate, microfluidic capillary electrophoresis)
# Type: biochemical
# Conditions: Cathepsin A inhibitory activity, read-out: CATHA IC50
# Experimental: Pharmacological Tests a) Cathepsin a Inhibitory Activity
# Recombinant human cathepsin A (residues 29-480, with a C-terminal 10-His tag; R&D Systems, #1049-SE) was proteolytically activated with recombinant human cathepsin L (R&D Systems, #952-CY). Briefly, cathepsin A was incubated at 10 μg/ml with cathepsin L at 1 μg/ml in activation buffer (25 mM 2-(morpholin-4-yl)-ethanesulfonic acid (MES), pH 6.0, containing 5 mM dithiothreitol (DTT)) for 15 min at 37° C.
# The activated cathepsin A was diluted in assay buffer (25 mM MES, pH 5.5, containing 5 mM DTT) and mixed with the test compound (dissolved in assay buffer containing (v/v) 3% DMSO) or, in the control experiments, with the vehicle in a multiple assay plate. After incubation for 15 min at room temperature, as substrate then bradykinin carrying an N-terminal® Bodipy FL (4,4-difluoro-5,7-dimethyl-4-bora-3a,4a-diaza-s-indacene-3-propionyl) label (JPT Peptide Technologies GmbH; dissolved in assay buffer) was added to the mixture. The final concentration of cathepsin A was 833 ng/ml and the final concentration of labeled bradykinin 2 μM. After incubation for 15 min at room temperature the reaction was stopped by the addition of stop buffer (130 mM 2-(4-(2-hydroxy-ethyl)-piperazin-1-yl)-ethanesulfonic acid, pH 7.4, containing (v/v) 0.013%° Triton X-100, 0.13% Coating Reagent 3 (Caliper Life Sciences), 6.5% DMSO and 20 μM ebelactone B (Sigma, #E0886)).
# Uncleaved substrate and product were then separated by a microfluidic capillary electrophoresis on a LabChip® 3000 Drug Discovery System (12-Sipper-Chip; Caliper Life Sciences) and quantified by determination of the respective peak areas. Substrate turnover was calculated by dividing product peak area by the sum of substrate and product peak areas, and the enzyme activity and the inhibitory effect of the test compound thus quantified.
# Recombinant human cathepsin A, sequence (P10619 29-326): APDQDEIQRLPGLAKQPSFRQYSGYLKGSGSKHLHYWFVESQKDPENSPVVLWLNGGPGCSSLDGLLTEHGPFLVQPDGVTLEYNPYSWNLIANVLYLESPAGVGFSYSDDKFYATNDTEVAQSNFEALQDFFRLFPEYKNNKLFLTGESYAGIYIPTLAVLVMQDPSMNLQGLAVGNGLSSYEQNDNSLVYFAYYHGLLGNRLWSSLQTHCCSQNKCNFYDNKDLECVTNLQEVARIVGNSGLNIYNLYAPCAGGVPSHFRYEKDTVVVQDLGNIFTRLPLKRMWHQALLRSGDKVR
# Recombinant human cathepsin A, sequence (P10619 327-480): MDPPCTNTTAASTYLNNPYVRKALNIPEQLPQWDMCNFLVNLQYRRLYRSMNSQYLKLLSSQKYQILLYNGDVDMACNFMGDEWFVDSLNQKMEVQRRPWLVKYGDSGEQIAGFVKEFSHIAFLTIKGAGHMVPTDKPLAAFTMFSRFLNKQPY
row,SMILES,IC50
1,N#Cc1ccccc1-c1cc(F)cc(C(CC(=O)O)c2ncco2)c1 (centres unmarked) [compound 137],2.03 µM
2,Cc1cccc(-c2cc(F)cc(C(CC(=O)O)c3ncco3)c2)c1F (centres unmarked) [compound 119],0.488 µM
3,Cc1cnc(C(CC(=O)O)c2cc(F)cc(-c3ccccc3C(=O)N(C)C)c2)s1 (centres unmarked) [compound 132],1.7 µM
4,Cc1cnc(C(CC(=O)O)c2cc(F)cc(-c3ccccc3F)c2)s1 (centres unmarked) [compound 122],0.78 µM
5,Cc1cnc(C(CC(=O)O)c2cc(F)cc(-c3ccccc3C#N)c2)s1 (centres unmarked) [compound 131],1.69 µM
6,Cc1nnc(C(CC(=O)O)c2cccc(-c3ccccc3C#N)c2)o1 (centres unmarked) [compound 146],4.74 µM
7,Cc1nnc(C(CC(=O)O)c2cccc(-c3cccnc3)c2)o1 (centres unmarked) [compound 147],6.71 µM
8,Cc1cnc(C(CC(=O)O)c2cc(F)cc(-c3cc(F)ccc3F)c2)s1 (centres unmarked) [compound 120],0.649 µM
9,Cc1ccc(-c2cc(F)cc(C(CC(=O)O)c3ncco3)c2)c(F)c1 (centres unmarked) [compound 125],1.16 µM
10,Cc1ccc(F)c(-c2cc(F)cc(C(CC(=O)O)c3ncc(C)s3)c2)c1 (centres unmarked) [compound 118],0.437 µM
11,Cc1cnc(C(CC(=O)O)c2cc(F)cc(-c3cccnc3)c2)s1 (centres unmarked) [compound 128],1.33 µM

# Same assay, conditions: read-out: CATHA IC50
row,SMILES,IC50
1,COc1ccc(-c2cccc(C(CC(=O)O)c3ncc(C)s3)c2)c(F)c1 (centres unmarked) [compound 54],0.989 µM
2,COc1ccc(-c2ccc(C(F)(F)F)cc2)cc1C(CC(=O)O)c1ncc(C)s1 (centres unmarked) [compound 83],4.38 µM
3,Cc1nnc(C(CC(=O)O)c2cccc(-c3cccc(Cl)c3Cl)c2)o1 (centres unmarked) [compound 15],0.634 µM
4,CCCOc1cccc(-c2cccc(C(CC(=O)O)c3nccs3)c2)c1 (centres unmarked) [compound 26],1.67 µM
5,COc1ccc(C=O)c(-c2cccc(C(CC(=O)O)c3nccs3)c2)c1 (centres unmarked) [compound 37],3.2 µM
6,Cc1cccc(-c2cccc(C(CC(=O)O)c3nccs3)c2)c1Cl (centres unmarked) [compound 4],0.797 µM
7,COc1ccc(-c2ccc(Cl)cc2F)cc1C(CC(=O)O)c1ncc(C)s1 (centres unmarked) [compound 79],3.57 µM
8,Cc1nc(C(CC(=O)O)c2cccc(Br)c2)sc1C (centres unmarked) [compound 2],7.78 µM
9,Cc1cnc(C(CC(=O)O)c2cc(Cl)cc(-c3ccncc3)c2)s1 (centres unmarked) [compound 112],0.459 µM
10,Cc1cnc(C(CC(=O)O)c2cc(Cl)cc(-c3cccc(C)c3F)c2)s1 (centres unmarked) [compound 102],0.184 µM
11,Cc1cnc(C(CC(=O)O)c2cc(Cl)cc(-c3cccc(Cl)c3F)c2)s1 (centres unmarked) [compound 103],0.197 µM
12,CC(=O)c1ccccc1-c1cccc(C(CC(=O)O)c2ncc(C)s2)c1 (centres unmarked) [compound 55],2.3 µM
13,Cc1cnc(C(CC(=O)O)c2cccc(-c3ccccc3C(N)=O)c2)s1 (centres unmarked) [compound 56],5.38 µM
14,Cn1nc(-c2cccc(C(CC(=O)O)c3nccs3)c2)c2ccccc21 (centres unmarked) [compound 18],0.769 µM
15,COc1ccc(-c2ccccc2C)cc1C(CC(=O)O)c1ncc(C)s1 (centres unmarked) [compound 78],3.28 µM
16,COc1ccc(-c2ccc(OC(F)(F)F)cc2)cc1C(CC(=O)O)c1ncc(C)s1 (centres unmarked) [compound 89],6.73 µM
17,Cc1cnc(C(CC(=O)O)c2cc(Cl)cc(-c3cccc(OC(F)(F)F)c3)c2)s1 (centres unmarked) [compound 111],0.406 µM
18,COc1cccc(-c2cccc(C(CC(=O)O)c3ncc(C)s3)c2)c1F (centres unmarked) [compound 51],0.397 µM
19,Cc1cnc(C(CC(=O)O)c2cccc(-c3ccncc3F)c2)s1 (centres unmarked) [compound 57],7.06 µM
20,COc1cccc(-c2cccc(C(CC(=O)O)c3nccs3)c2)c1 (centres unmarked) [compound 21],1.18 µM
21,Cc1cnc(C(CC(=O)O)c2cc(Cl)cc(-c3ccccc3OC(F)(F)F)c2)s1 (centres unmarked) [compound 104],0.221 µM
22,COc1ccc(-c2cccc(C#N)c2)cc1C(CC(=O)O)c1ncc(C)s1 (centres unmarked) [compound 94],9.26 µM
23,COc1ccc(-c2cc(C)ccc2F)cc1C(CC(=O)O)c1ncc(C)s1 (centres unmarked) [compound 86],5.68 µM
24,O=C(O)CC(c1cccc(-c2ccncc2F)c1)c1nccs1 (centres unmarked) [compound 47],24.8 µM
25,COc1cc(F)c(-c2cccc(C(CC(=O)O)c3nccs3)c2)cc1F (centres unmarked) [compound 22],1.32 µM
26,O=C(O)CC(c1cccc(-c2cccnc2)c1)c1nccs1 (centres unmarked) [compound 44],21.2 µM
27,O=C(O)CC(c1cccc(-c2ccc(Cl)cc2)c1)c1nccs1 (centres unmarked) [compound 7],1.75 µM

row,SMILES,IC50
1,COc1ccc(-c2cc(Cl)ccc2F)cc1C(CC(=O)O)c1ncc(C)s1 (centres unmarked) [compound 65],1.23 µM
2,O=C(O)CC(c1cccc(-c2ccc(Cl)c(OCc3ccccc3)c2)c1)c1nccs1 (centres unmarked) [compound 38],7.87 µM
3,Cc1cnc(C(CC(=O)O)c2cc(Cl)cc(-c3ccccc3F)c2)s1 (centres unmarked) [compound 107],0.328 µM
4,Cc1cnc(C(CC(=O)O)c2cccc(-c3cc(Cl)ccc3F)c2)s1 (centres unmarked) [compound 50],0.228 µM
5,Cc1cccc(-c2cccc(C(CC(=O)O)c3nccs3)c2)c1 (centres unmarked) [compound 3],0.784 µM
6,Cc1cnc(C(CC(=O)O)c2cccc(-c3cccnc3)c2)s1 (centres unmarked) [compound 58],7.54 µM
7,O=C(O)CC(c1cccc(-c2ccc(F)cc2)c1)c1nccs1 (centres unmarked) [compound 14],4.3 µM
8,Cc1cnc(C(CC(=O)O)c2cc(Cl)cc(-c3ccccc3C(N)=O)c2)s1 (centres unmarked) [compound 110],0.404 µM
9,COc1cc(F)c(-c2cccc(C(CC(=O)O)c3ncc(C)s3)c2)cc1F (centres unmarked) [compound 52],0.466 µM
10,O=C(O)CC(c1cccc(-c2ccc(OCc3ccccc3)c(F)c2)c1)c1nccs1 (centres unmarked) [compound 33],2.43 µM
11,COc1ccc(-c2ccccc2F)cc1C(CC(=O)O)c1ncc(C)s1 (centres unmarked) [compound 72],2.34 µM
12,O=C(O)CC(c1cccc(-c2cccc(OC(F)(F)F)c2)c1)c1nccs1 (centres unmarked) [compound 28],2.25 µM
13,COc1cccc(-c2cccc(C(CC(=O)O)c3nccs3)c2)c1F (centres unmarked) [compound 17],0.588 µM
14,CC(C)COc1cc(F)cc(-c2cccc(C(CC(=O)O)c3nccs3)c2)c1 (centres unmarked) [compound 31],2.31 µM
15,COc1ccc(-c2cc(F)ccc2Cl)cc1C(CC(=O)O)c1ncc(C)s1 (centres unmarked) [compound 66],1.25 µM
16,O=C(O)CC(c1cccc(-c2ccc(OCC3CC3)cc2)c1)c1nccs1 (centres unmarked) [compound 30],2.29 µM
17,COc1ccc(-c2cccc(C)c2F)cc1C(CC(=O)O)c1ncc(C)s1 (centres unmarked) [compound 73],2.42 µM
18,COc1ccc(-c2cc(F)ccc2F)cc1C(CC(=O)O)c1ncc(C)s1 (centres unmarked) [compound 63],0.975 µM
19,N#Cc1ccc(-c2cccc(C(CC(=O)O)c3nccs3)c2)cn1 (centres unmarked) [compound 45],22.6 µM
20,COc1ccc(-c2ccc(Cl)cc2)cc1C(CC(=O)O)c1ncc(C)s1 (centres unmarked) [compound 76],3.2 µM
21,COc1ccc(-c2ccc(F)cc2)cc1C(CC(=O)O)c1ncc(C)s1 (centres unmarked) [compound 84],4.39 µM
22,COc1ccc(-c2cccc(C(F)(F)F)c2)cc1C(CC(=O)O)c1ncc(C)s1 (centres unmarked) [compound 91],7.77 µM
23,CC(=O)c1ccccc1-c1cc(Cl)cc(C(CC(=O)O)c2ncc(C)s2)c1 (centres unmarked) [compound 106],0.25 µM
24,COc1ccc(-c2ccc(F)cc2F)cc1C(CC(=O)O)c1ncc(C)s1 (centres unmarked) [compound 74],2.65 µM
25,O=C(O)CC(c1cccc(-c2cc(C(F)(F)F)ccc2F)c1)c1nccs1 (centres unmarked) [compound 13],3.62 µM
26,COc1c(C)cc(-c2cccc(C(CC(=O)O)c3nccs3)c2)cc1C (centres unmarked) [compound 25],1.65 µM
27,O=C(O)CC(c1cccc(-c2ccncc2Cl)c1)c1nccs1 (centres unmarked) [compound 43],19.4 µM
